Measurements: patent publication US20210299162A1, “MOLECULAR HYDROGEN-CONTAINING COMPOSITION FOR PREVENTION AND/OR IMPROVEMENT OF ENCEPHALITIS AND/OR MENINGITIS AND SYMPTOM ASSOCIATED WITH THE ENCEPHALITIS AND/OR MENINGITIS” (MiZ Company Limited, priority 2020, published 2021)

Tests used:
meningococcal meningitis = settings: person
Protocol: The case patient is person. The patient presenting with pyrexia and disturbance of consciousness was admitted to hospital urgently. […] The patient initiated inhalation, which was performed for one to three hours per day for one month using a hydrogen gas generator “Jobs-α” (a hydrogen concentration, 4% to 6%; generation rate of hydrogen gas, 200 mL/min) manufactured by MiZ Company Limited.

[1] = room temperature, normal pressure; also printed as 1.6 mg/L; cited from earlier work

CO/N=C(\C(=O)N[C@@H]1C(=O)N2C(C(=O)O)=C(CSc3nc(=O)c(=O)[nH]n3C)CS[C@H]12)c1csc(N)n1 [Ceftriaxone, reference compound]
symptoms (pyrexia, disturbance of consciousness) (meningococcal meningitis; administered for 17 days): resolved symptoms
course after completion of the administration (meningococcal meningitis; after 17 days of administration): relapse

[HH] [hydrogen, molecular hydrogen]
clinical course (meningococcal meningitis; relapse after ceftriaxone, inhalation one to three hours per day for one month, hydrogen concentration 4% to 6%, 200 mL/min (Jobs-α)): began to improve
brain MRI (ventriculitis) (meningococcal meningitis; after hydrogen inhalation one to three hours per day for one month, hydrogen concentration 4% to 6%): improvement of ventriculitis
concentration dissolved in water (solubility) [1]: approximately 1.6 ppm
